Source: US20220175820A1 (PIERRE FABRE DERMO-COSMETIQUE, priority 2019, published 2022)
Marks after values point to notes of the source that are not given here.

Legend:
TSLP = TSLP production by stimulated normal human epidermal keratinocytes (atopic dermatitis model, ELISA); assay type: cell-based; conditions: Poly I:C, PamC3, IL-4, IL-13
Procedure: (§1) The study is performed on normal human epidermal keratinocytes cultured under standard conditions (37° C., 5% CO2). The culture medium is standard (keratinocyte-SFM supplemented with 0.25 ng/ml epidermal growth factor (EGF), 25 μg/ml pituitary extract and 25 μg/ml gentamycin). The test medium is the same without growth factor.
(§2) To simulate an atopic dermatitis environment, keratinocytes are preincubated for 1 hour in the medium with or without (control) the compounds to be tested, the vehicle (water) or the positive control, bafilomycin (macrolide family) at 30 nM. […] After this preincubation, keratinocytes are stimulated for 24 hours by a mixture of TLR ligands (Poly I:C and PamC3) and inflammatory cytokines (IL-4 and IL-13) added to the cells. An unstimulated control condition is also done at the same time. The cells are incubated for 24 hours.
(§3) The culture supernatants are collected, centrifuged and frozen at −80° C. TSLP and IL-8 are quantified by ELISA.
(§4) Three independent experiments are conducted. Statistical analysis is determined by one-way ANOVA followed by Dunnett's post-hoc test.

IL-8 = IL-8 production by stimulated normal human epidermal keratinocytes (atopic dermatitis model, ELISA); assay type: cell-based; conditions: Poly I:C, PamC3, IL-4, IL-13
Procedure: as §1, §2, §3, §4

[1] = tested on: prostaglandin PG6KF1α production, HaCat line (human keratinocytes); test: PG6KF1α release by HaCat keratinocytes stimulated with calcium ionophore A23187 (ELISA); assay type: cell-based
Procedure: The cell line used in this study is the HaCat line (human keratinocytes).
The cells are cultured in DMEM (Dulbecco's Modified Eagle Medium) supplemented with foetal calf serum in an environment at 37° C. and 5% CO2 on 24-well plates. They are then preincubated for 60 minutes, still at 37° C., with the products to be tested dissolved in water. A stimulant the arachidonic acid pathway is added for 5 hours. This is the stimulation phase; the stimulant is the calcium ionophore A23187 (solution in 0.01% DMSO) used at 5 μM. […] After 5 hours of stimulation, still in the same medium, the culture supernatant of each well is drawn off, centrifuged at 3000 RPM then stored at −20° C. The production of prostaglandin PG6KF1α in culture supernatant is measured with the Euromedex Elisa kit according to the supplier's instructions. Statistical analysis is performed by ANOVA followed by Dunnett's post-hoc test. Note that 3 independent experiments were conducted. The results for each product and for each dose are averaged from measurements performed on 3 wells. Thus, the control group (with no stimulant) makes it possible to quantify basal PG6KF1α production.

[2] = pH ranging from 4 to 10 at ambient temperature; cited from earlier work
[3] = tested on: transcription factor NFκB; test: NFκB activation stimulated by TNFα in HaCat keratinocytes with luciferase reporter gene; assay type: cell-based, human; conditions: TNFα 0.3 ng/ml, 5 hours
Procedure: The cell line used in this study is the HaCat line (human keratinocytes) stably transfected with the luciferase reporter gene.
These cells are cultured on 24-well plates under the same conditions as in Example 1. They are then preincubated for 60 minutes with the products to be tested, added to the culture medium in the form of a solution in water. A stimulant, TNFα (0.3 ng/ml, diluted in culture medium) is added to the cultures which are then incubated for 5 hours at 37° C. […] A positive control is used in this test, dexamethasone (synthetic glucocorticoid hormone, with an antiinflammatory and immunosuppressant effect, added to the culture medium in the form of a solution in water) tested at 2 μM in the culture medium. Note that 3 independent experiments were conducted. The Bright-Glo™ agent (which induces cell lysis and thus enables luciferase release) and its substrate (luciferin) are added before reading the luminescence. The raw data are analyzed by Excel. The intergroup comparison is performed by one-way ANOVA followed by Dunnett's post-hoc test.

[4] = dextran sulfate (Dextralip, 9000-20000 Da) 0.3 μg/ml
[5] = dextran sulfate (Dextralip, 9000-20000 Da) 0.3 μg/ml, listed as dextran sulfate
[6] = dextran sulfate (Dextralip, 9000-20000 Da) 3 μg/ml
[7] = dextran sulfate (Dextralip, 9000-20000 Da) 30 μg/ml
[8] = natural dextran sulfate 9000-20000 Da (Dextralip) 10 μg/ml, A23187 5 μM 5 h
[9] = natural dextran sulfate 9000-20000 Da (Dextralip) 30 μg/ml, A23187 5 μM 5 h
[10] = natural dextran sulfate 9000-20000 Da (Dextralip) 100 μg/ml, A23187 5 μM 5 h
[11] = natural dextran sulfate 9000-20000 Da (Dextralip) 300 μg/ml, A23187 5 μM 5 h
[12] = natural dextran sulfate 9000-20000 Da (Dextralip) 1000 μg/ml, A23187 5 μM 5 h
[13] = natural dextran sulfate 9000-20000 Da (Dextralip) 3000 μg/ml, A23187 5 μM 5 h
[14] = synthetic dextran sulfate 4000-8000 Da 10 μg/ml, A23187 5 μM 5 h
[15] = synthetic dextran sulfate 4000-8000 Da 30 μg/ml, A23187 5 μM 5 h
[16] = synthetic dextran sulfate 4000-8000 Da 100 μg/ml, A23187 5 μM 5 h
[17] = synthetic dextran sulfate 4000-8000 Da 300 μg/ml, A23187 5 μM 5 h
[18] = synthetic dextran sulfate 4000-8000 Da 1000 μg/ml, A23187 5 μM 5 h
[19] = synthetic dextran sulfate 4000-8000 Da 3000 μg/ml, A23187 5 μM 5 h
[20] = natural dextran sulfate (Dextralip, 9000-20000 Da) 0.3 mg/ml
[21] = natural dextran sulfate (Dextralip, 9000-20000 Da) 1 mg/ml
[22] = natural dextran sulfate (Dextralip, 9000-20000 Da) 3 mg/ml
[23] = indomethacin 0.1 μM, A23187 5 μM for 5 hours

## Sodium dextran sulphate [Dextran sulfate]
TSLP; [4]
  TSLP production at 24 h % Inh: 0%
  TSLP production at 24 h Mean: 247 pg/mL
TSLP; [5]
  TSLP production at 24 h % Inh: does not induce reduction in TSLP production
TSLP; [6]
  TSLP production at 24 h % Inh: 90%
  TSLP production at 24 h Mean: 34 pg/mL
TSLP; [7]
  TSLP production at 24 h % Inh: 96%
  TSLP production at 24 h Mean: 19 pg/mL
IL-8; [4]
  Production of IL-8 at 24 h % Inh: 0%
  Production of IL-8 at 24 h Mean: 63672 pg/mL
IL-8; [5]
  Production of IL-8 at 24 h % Inh: not sufficient to inhibit IL-8 production
IL-8; [6]
  Production of IL-8 at 24 h % Inh: 82** %
  Production of IL-8 at 24 h Mean: 10837 pg/mL
IL-8; dextran sulfate (Dextralip, 9000-20000 Da) 3 μg/ml, listed as dextran sulfate
  Production of IL-8 at 24 h % Inh: more than 80%
IL-8; [7]
  Production of IL-8 at 24 h % Inh: 100%
  Production of IL-8 at 24 h Mean: 170 pg/mL
[1]; [8]
  PG6KF1α % Inh: 36%
  PG6KF1α (pg/ml) Mean: 1878.6 pg/mL
[1]; [9]
  PG6KF1α % Inh: 23%
  PG6KF1α (pg/ml) Mean: 2113.4 pg/mL
[1]; [10]
  PG6KF1α % Inh: 14%
  PG6KF1α (pg/ml) Mean: 2287.5 pg/mL
[1]; [11]
  PG6KF1α % Inh: 32%
  PG6KF1α (pg/ml) Mean: 1950.9 pg/mL
[1]; [12]
  PG6KF1α % Inh: 43%
  PG6KF1α (pg/ml) Mean: 1737.6 pg/mL
[1]; [13]
  PG6KF1α % Inh: 37%
  PG6KF1α (pg/ml) Mean: 1843.8 pg/mL
[1]; [14]
  PG6KF1α % Inh: 35%
  PG6KF1α (pg/ml) Mean: 1536.5 pg/mL
[1]; [15]
  PG6KF1α % Inh: 23%
  PG6KF1α (pg/ml) Mean: 1719.7 pg/mL
[1]; [16]
  PG6KF1α % Inh: 14%
  PG6KF1α (pg/ml) Mean: 1848.5 pg/mL
[1]; [17]
  PG6KF1α % Inh: 29%
  PG6KF1α (pg/ml) Mean: 1626.6 pg/mL
[1]; [18]
  PG6KF1α % Inh: 40%
  PG6KF1α (pg/ml) Mean: 1462.5 pg/mL
[1]; [19]
  PG6KF1α % Inh: 39%
  PG6KF1α (pg/ml) Mean: 1486.2 pg/mL
[2]
  stability in solutions: high stability
[3]; [20]
  NFκB activation % Inh: does not reduce NFκB activation
  NFκB activation RLU Mean: 27024 RLU
[3]; natural dextran sulfate (Dextralip, 9000-20000 Da) 0.3 mg/ml, listed as Dex S.
  NFκB activation % Inh: −13%
[3]; [21]
  NFκB activation % Inh: does not reduce NFκB activation
  NFκB activation RLU Mean: 23229 RLU
[3]; natural dextran sulfate (Dextralip, 9000-20000 Da) 1 mg/ml, listed as Dex S.
  NFκB activation % Inh: 3%
[3]; [22]
  NFκB activation % Inh: 42%
  NFκB activation RLU Mean: 13836 RLU

## COc1ccc2c(c1)c(CC(=O)O)c(C)n2C(=O)c1ccc(Cl)cc1 [Indo, indomethacin, reference compound]
[1]; [23]
  PG6KF1α % Inh: 33%
  PG6KF1α (pg/ml) Mean: 839.9 pg/mL
[1]; indomethacin 0.1 μM, A23187 5 μM for 5 hours, listed as Indomethacin
  PG6KF1α % Inh: a third
